In brackets after ≈: the same amount, converted by molar mass.
Experiments:
[1] = Kinetic solubility in aqueous PBS buffer (HPLC-MS); assay type: physicochemical; settings: kinetic from dmso stock, DMSO stock mixed with aqueous PBS buffer, filtered, read-out: Kinetic Solubility
Procedure: In another exemplary method, central nervous system multiparameter optimization (CNS MPO) score and kinetic solubility of selected compounds was determined. CNS MPO score for compounds and their isomers disclosed herein were calculated using an algorithm that uses a weighted scoring function assessing 6 key physicochemical properties (clogP, clogD, MW, TPSA, HBD, and pKa) for blood-brain-barrier (BBB penetration). CNS MPO score ranged from 0 and 6.0 with scores≥4.0 used as a cut-off to select compounds that can have a high probability of accumulating in the CNS. Kinetic solubility of a compound is the maximum solubility of the fastest precipitating species of the compound. Kinetic solubility was determined by preparing a concentrated stock solution for compounds and their isomers disclosed herein in an organic solvent (DMSO), after which the solution was mixed with an aqueous PBS buffer and then filtered. Filtrate was tested to quantify the kinetic solubilty using HPLC-MS calibration curve. The CNS MPO Score and kinetic solubility of the compounds tested are provided in Table 7 where “ND” means not determined.

LNCaP cells = test: Cell viability (AlamarBlue), LNCaP prostate cancer cells; assay type: cell-based, human; set-up: key to EC50 (μM) in LNCaP cells: Inactive: less than 50% inhibition at the highest concentration tested at 50 μM; settings: 72 hours of treatment
Procedure: (§1) In another exemplary method, half maximal effective concentration (EC50) was determined for some compounds and their isomers as disclosed herein in a variety of human cancer cell lines. In brief, cells from two prostate cancer cell lines (LNCaP, 22RV1), one glioblastoma cell line (U87), one breast cancer cell line (MCF7), a glioma cell line (LN18), a normal prostate cell line (RWPE1), and a glioblastoma cell line (T98G) were plated in a multi-well plate. After 24 hours, one of the compounds herein was added to the well at increasing concentrations. After 72 hours of treatment, cell viability was assessed using AlamrBlue® (Invitrogen) and fluorescence was read using the CLARIOstar Plus Multilabel Plate Reader (BMG Labtech). Samples were normalized to no treatment controls. EC50 values were determined using GraphPad Prism.

22RV1 cells = test: Cell viability (AlamarBlue), 22RV1 prostate cancer cells; assay type: cell-based, human; set-up: key to EC50 (μM) in 22RV1 cells: Inactive: less than 50% inhibition at the highest concentration tested at 50 μM; settings: 72 hours of treatment
Procedure: as §1

U87 cells = test: Cell viability (AlamarBlue), U87 glioblastoma cells; assay type: cell-based, human; set-up: key to EC50 (μM) in U87 cells: Inactive: less than 50% inhibition at the highest concentration tested at 50 μM; settings: 72 hours of treatment
Procedure: as §1

| solubility kinetic [1] [µM] | EC50 (LNCaP cells; Homo sapiens, LNCaP, 72 h) [µM] | EC50 (22RV1 cells; Homo sapiens, 22Rv1, 72 h) [µM] | EC50 (U87 cells; Homo sapiens, U-87 MG, 72 h) [µM] | EC50 (μM) in U87 cells (U87 cells) | Compound | other results |
| --- | --- | --- | --- | --- | --- | --- |
| 37.5 (≈ 16.3 µg/mL) | 11.8 | 1.3 | 3.7 | – | COCCOC1CC(C(=O)NC(=O)Nc2ccc(Oc3ccc(Cl)cn3)c(C)c2)C1 (centres unmarked) [Compound 49, N-((4-((5-chloropyridin-2-yl)oxy)-3-methylphenyl)carbamoyl)-3-(2-methoxyethoxy)cyclobutane-1-carboxamide] | – |
| 2.21 (≈ 0.89 µg/mL) | – | – | 0.06 | – | COC12CC(C(=O)NC(=O)Nc3ccc(Oc4ncc(Cl)cn4)c(C)c3)(C1)C2 [Compound 85, N-((4-((5-chloropyrimidin-2-yl)oxy)-3-methylphenyl)carbamoyl)-3-methoxybicyclo[1.1.1]pentane-1-carboxamide] | – |
| 84.2 (≈ 36.6 µg/mL) | 12.4 | 3.2 | 6.4 | – | COCCOC1CC(C(=O)NC(=O)Nc2ccc(Oc3ncc(Cl)cn3)c(C)c2)C1 (centres unmarked) [Compound 48, N-((4-((5-chloropyrimidin-2-yl)oxy)-3-methylphenyl)carbamoyl)-3-(2-methoxyethoxy)cyclobutane-1-carboxamide] | – |
| – | 0.93 | 1.6 | 0.35 | – | COC1CC(C(=O)NC(=O)Nc2ccc(Oc3ncc(C(F)(F)F)s3)c(C)c2)C1 (centres unmarked) [Compound 61, 3-methoxy-N-((3-methyl-4-((5-(trifluoromethyl)thiazol-2-yl)oxy)phenyl)carbamoyl)cyclobutane-1-carboxamide] | – |
| – | – | – | – | Inactive | COCCOC1CCC(C(=O)NC(=O)Nc2ccc(Oc3ncc(Cl)cn3)c(C)c2)CC1 (centres unmarked) [Compound 50, N-((4-((5-chloropyrimidin-2-yl)oxy)-3-methylphenyl)carbamoyl)-4-(2-methoxyethoxy)cyclohexanecarboxamide] | EC50 (μM) in LNCaP cells (LNCaP cells): Inactive; EC50 (μM) in 22RV1 cells (22RV1 cells): Inactive |
| 75 (≈ 27.2 µg/mL) | 3.1 | 6.3 | 13.5 | – | COC1CC(C(=O)NC(=O)Nc2ccc(Oc3ncns3)c(C)c2)C1 (centres unmarked) [Compound 57, N-((4-((1,2,4-thiadiazol-5-yl)oxy)-3-methylphenyl)carbamoyl)-3-methoxycyclobutane-1-carboxamide] | – |
| – | – | – | – | Inactive | COCCOC1CCC(C(=O)NC(=O)Nc2ccc(Oc3ncc(Cl)cn3)c(F)c2)CC1 (centres unmarked) [Compound 54, N-((4-((5-chloropyrimidin-2-yl)oxy)-3-fluorophenyl)carbamoyl)-4-(2-methoxyethoxy)cyclohexane-1-carboxamide] | EC50 (μM) in LNCaP cells (LNCaP cells): Inactive; EC50 (μM) in 22RV1 cells (22RV1 cells): Inactive |
| 58.4 (≈ 21.1 µg/mL) | – | – | – | – | COC1CC(C(=O)NC(=O)Nc2ccc(Oc3nccs3)c(C)c2)C1 (centres unmarked) [Compound 45, 3-methoxy-N-((3-methyl-4-(thiazol-2-yloxy)phenyl)carbamoyl)cyclobutane-1-carboxamide] | – |
| – | 21 | 1 | 5.4 | – | COC1CC(C(=O)NC(=O)Nc2ccc(Oc3ncc(C#N)s3)c(C)c2)C1 (centres unmarked) [Compound 62, N-((4-((5-cyanothiazol-2-yl)oxy)-3-methylphenyl)carbamoyl)-3-methoxycyclobutane-1-carboxamide] | – |
| – | 25.3 | 36 | – | Inactive | COC1CC(C(=O)NC(=O)Nc2ccc(Oc3cnc(N4CC5(COC5)C4)nc3)c(C)c2)C1 (centres unmarked) [Compound 52, -((4-((2-(2-oxa-6-azaspiro[3.3]heptan-6-yl)pyrimidin-5-yl)oxy)-3-methylphenyl)carbamoyl)-3-methoxycyclobutanecarboxamide] | – |
| 0.39 (≈ 0.183 µg/mL) | 2.9 | 8 | – | Inactive | COC1CCC(C(=O)NC(=O)Nc2ccc(Oc3cnc(N4CCOCC4)nc3)c(C)c2)CC1 (centres unmarked) [Compound 46, 4-methoxy-N-((3-methyl-4-((2-morpholinopyrimidin-5-yl)oxy)phenyl)carbamoyl)cyclohexane-1-carboxamide] | – |

More lines, now with the values behind:

| Compound | solubility kinetic [1] [µM] | EC50 (LNCaP cells; Homo sapiens, LNCaP, 72 h) [µM] | EC50 (22RV1 cells; Homo sapiens, 22Rv1, 72 h) [µM] | EC50 (U87 cells; Homo sapiens, U-87 MG, 72 h) [µM] | EC50 (μM) in U87 cells (U87 cells) | other results |
| --- | --- | --- | --- | --- | --- | --- |
| COC1CCC(C(=O)NC(=O)Nc2ccc(Oc3ccc(C#N)cn3)c(C)c2)CC1 (centres unmarked) [Compound 6, 3-{4-[(5-cyanopyridin-2-yl)oxy]-3-methylphenyl}-1-(4-methoxycyclohexanecarbonyl)urea] | 0.53 (≈ 0.216 µg/mL) | – | – | – | – | – |
| COC1CC(C(=O)NC(=O)Nc2ccc(Oc3ncc(Cl)cn3)c(C)c2)C1 (centres unmarked) [Compound 20, N-((4-((5-chloropyrimidin-2-yl)oxy)-3-methylphenyl)carbamoyl)-3-methoxycyclobutane-1-carboxamide] | 7.1 (≈ 2.77 µg/mL) | – | – | – | – | – |
| COC1CC(C(=O)NC(=O)Nc2ccc(Oc3ccc(F)cn3)c(C)c2)C1 (centres unmarked) [Compound 15, N-((4-((5-fluoropyridin-2-yl)oxy)-3-methylphenyl)carbamoyl)-3-methoxycyclobutane-1-carboxamide] | 14.7 (≈ 5.48 µg/mL) | – | – | – | – | – |
| COC1CCC(C(=O)NC(=O)Nc2ccc(Oc3ccc(C)cn3)c(C)c2)CC1 (centres unmarked) [Compound 32, 1-(4-methoxycyclohexanecarbonyl)-3-{3-methyl-4-[(5-methylpyridin-2-yl)oxy]phenyl}urea] | – | 34 | 35 | – | Inactive | – |
| COC1CCC(C(=O)NC(=O)Nc2ccc(Oc3nccn3C)c(C)c2)CC1 (centres unmarked) [Compound 28, 1-(4-methoxycyclohexanecarbonyl)-3-{3-methyl-4-[(1-methyl-1H-imidazol-2-yl)oxy]phenyl}urea] | – | – | – | – | Inactive | EC50 (μM) in LNCaP cells (LNCaP cells): Inactive; EC50 (μM) in 22RV1 cells (22RV1 cells): Inactive |
| COC1CC(C(=O)NC(=O)Nc2ccc(Oc3ccc(C#N)cn3)c(C)c2)C1 (centres unmarked) [Compound 16, N-((4-((5-cyanopyridin-2-yl)oxy)-3-methylphenyl)carbamoyl)-3-methoxycyclobutane-1-carboxamide] | 11.6 (≈ 4.41 µg/mL) | – | – | – | – | – |
| Cc1cc(NC(=O)NC(=O)C2CC(OCC3CC3)C2)ccc1Oc1nccs1 (centres unmarked) [Compound 39, 3-(cyclopropylmethoxy)-N-((3-methyl-4-(thiazol-2-yloxy)phenyl)carbamoyl)cyclobutane-1-carboxamide] | – | – | – | – | Inactive | EC50 (μM) in LNCaP cells (LNCaP cells): Inactive; EC50 (μM) in 22RV1 cells (22RV1 cells): Inactive |
| COC1CCC(C(=O)NC(=O)Nc2ccc(Oc3ncc(C(F)(F)F)cn3)c(C)c2)CC1 (centres unmarked) [Compound 29, 1-(4-methoxycyclohexanecarbonyl)-3-(3-methyl-4-{[5-(trifluoromethyl)pyrimidin-2-yl)oxy}phenyl)urea] | – | 6.5 | 4.7 | 5.3 | – | – |
| COC1CCC(C(=O)NC(=O)Nc2ccc(Oc3ncc(C)cn3)c(C)c2)CC1 (single isomer, unassigned) [Compound 27A, 4-methoxy-N-((3-methyl-4-((5-methylpyrimidin-2-yl)oxy)phenyl)carbamoyl)cyclohexane-1-carboxamide] | – | – | – | – | – | EC50 (LNCaP cells): 1.3 µM; EC50 (22RV1 cells): 2.8 µM; EC50 (U87 cells): 2.1 µM |
| COC1CCC(C(=O)NC(=O)Nc2ccc(Oc3ncc(C)cn3)c(C)c2)CC1 (single isomer, unassigned) [Compound 27B, 4-methoxy-N-((3-methyl-4-((5-methylpyrimidin-2-yl)oxy)phenyl)carbamoyl)cyclohexane-1-carboxamide] | – | – | – | – | – | EC50 (LNCaP cells): 9.8 µM; EC50 (22RV1 cells): 25 µM; EC50 (U87 cells): 23.3 µM |
| COC1CCC(C(=O)NC(=O)Nc2ccc(Oc3ccc(C(C)C)cn3)c(C)c2)CC1 (single isomer, unassigned) [Compound 34B, N-((4-((5-isopropylpyridin-2-yl)oxy)-3-methylphenyl)carbamoyl)-4-methoxycyclohexane-1-carboxamide] | – | – | – | – | Inactive | EC50 (μM) in LNCaP cells (LNCaP cells): Inactive; EC50 (μM) in 22RV1 cells (22RV1 cells): Inactive |
| Cc1cc(NC(=O)NC(=O)C2CC(OCC3CC3)C2)ccc1Oc1ncc(Cl)cn1 (centres unmarked) [Compound 41, N-((4-((5-chloropyrimidin-2-yl)oxy)-3-methylphenyl)carbamoyl)-3-(cyclopropylmethoxy)cyclobutane-1-carboxamide] | – | – | 46 | 49 | – | EC50 (μM) in LNCaP cells (LNCaP cells): Inactive |
| COC1CCC(C(=O)NC(=O)Nc2ccc(Oc3ncc(C(C)C)cn3)c(C)c2)CC1 (centres unmarked) [Compound 30, 1-(4-methoxycyclohexanecarbonyl)-3-(3-methyl-4-{[5-(propan-2-yl)pyrimidin-2-yl)oxy}phenyl)urea] | – | 8.5 | 14.4 | 12.2 | – | – |

Reference: patent US12404242B2, “Compositions and methods for making and using small molecules in the treatment of cancer” (Reglagene, Inc., priority 2021, dated 2025)
